“And” between values parts separate entries of the source, which are not always exact repeats. Equal values may be shown once.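 A five-concentration, 48-hour dose response in 96-well plates underlies each endpoint, interpolated linearly between surrounding concentrations. GI50 marks 50% less growth. TGI denotes the concentration required for complete inhibition of growth.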
Experiments:
Assay in all cases: inhibition of tumour cell growth, NCI panel, 48 h
HOP-92 NSCLC = test system: HOP-92 NSCLC
HCT-116 colon = test system: HCT-116 colon
SK-MEL-28 melanoma = test system: SK-MEL-28 melanoma
786-0 renal = test system: 786-0 renal
T-47D breast = test system: T-47D breast
UACC-62 melanoma = test system: UACC-62 melanoma
NCI-H522 lung = test system: NCI-H522 lung
MDA-MB-435 = test system: MDA-MB-435
PC-3 prostate = test system: PC-3 prostate
SW-620 colon = test system: SW-620 colon

Row | Compound | GI50 (HOP-92 NSCLC) | TGI (HOP-92 NSCLC) | GI50 (HCT-116 colon) | TGI (HCT-116 colon) | GI50 (SK-MEL-28 melanoma) | TGI (SK-MEL-28 melanoma) | GI50 (786-0 renal) | TGI (786-0 renal) | GI50 (T-47D breast) | TGI (T-47D breast) | GI50 (UACC-62 melanoma) | TGI (UACC-62 melanoma) | GI50 (NCI-H522 lung) | TGI (NCI-H522 lung) | GI50 (MDA-MB-435) | TGI (MDA-MB-435) | GI50 (PC-3 prostate) | TGI (PC-3 prostate) [µM] | GI50 (SW-620 colon) | TGI (SW-620 colon)
1 | O=C1NC(=S)S/C1=C/c1ccc2c(c1)OCO2 | 17.6 µM | 87.7 µM | > 100 µM | > 100 µM | > 100 µM | > 100 µM | > 100 µM | > 100 µM | > 100 µM | > 100 µM | > 100 µM | > 100 µM | > 100 µM | > 100 µM | > 100 µM | > 100 µM | 82.1 µM | > 100 | > 100 µM | > 100 µM
2 | Cc1cn(-c2cc(NC(=O)c3cccc(C#Cc4cccc5[nH]nc(N)c45)c3)cc(C(F)(F)F)c2)cn1 | 2.67 µM | 9.75 µM | 2.62 µM | 18.8 µM | 2.62 µM | 25.7 µM | 4.72 µM | 20.6 µM | 3.39 µM | 18.5 µM | 2.54 µM | 12.7 µM | 5.48 µM | 49 µM | 3.74 µM | 37 µM | 6.46 µM | 26.7 | 4.22 µM | > 100 µM
3 | Cc1ccc(C)c(NC(=O)CC2Sc3ccccc3NC2=O)c1 (stereo not drawn) | – | 16.9 µM and 42.5 µM | 15.9 µM and 36.9 µM | 25.2 µM and > 94.5 µM | 34.9 µM and > 100 µM | 54.7 µM and > 100 µM | – | 30.7 µM and 58.6 µM | 17.4 µM and > 63.1 µM | 83.9 µM and > 100 µM | – | > 100 µM | 21.7 µM and 45.6 µM | 60.6 µM and > 93.8 µM | – | 85 µM and > 100 µM | – | > 100 | 26.2 µM and > 77.1 µM | > 100 µM
4 | CCN(CC)CCCC(CCl)Nc1ccnc2cc(Cl)ccc12 (stereo not drawn) | 11.2 µM and 14.5 µM | 36.6 µM and 42.1 µM | 9.81 µM and 6.94 µM | 25.2 µM and 30.4 µM | 18.8 µM and 19 µM | 54.7 µM and > 63 µM | 14.8 µM and 18 µM | 32.8 µM and 62 µM | 49.2 µM and 34.1 µM | > 100 µM | 20 µM and 6.69 µM | 38.7 µM and 34.8 µM | 25.7 µM and 25.1 µM | 67.8 µM and > 73.6 µM | 14.6 µM and 6.64 µM | 28.3 µM and 19.3 µM | 27.2 µM and 34.9 µM | > 100 | 22.5 µM and 33.5 µM | 54.4 µM and > 100 µM
5 | CC1(C)N=C(N)N=C(N)N1c1ccc(CCC(=O)Nc2ccc(S(=O)(=O)F)cc2)c(Cl)c1 | 6.54 µM | > 100 µM | 0.268 µM | > 100 µM | 22.8 µM | > 100 µM | 0.697 µM | > 100 µM | 12.4 µM | > 100 µM | 0.287 µM | > 100 µM | 0.642 µM | > 100 µM | 0.296 µM | > 100 µM | 0.0926 µM | 49.7 | 0.144 µM | > 100 µM
6 | COCCOC(=O)C1=C(O)c2ccccc2S(=O)(=O)N1C | – | > 100 µM | – | > 100 µM | – | > 100 µM | – | > 100 µM | – | > 100 µM | – | > 100 µM | – | > 100 µM | – | > 100 µM | – | > 100 | – | > 100 µM
7 | O=C1C(=O)c2ccccc2C(O)=C1C(C1=C(O)c2ccccc2C(=O)C1=O)c1ccc(Cl)cc1 | – | 44.1 µM | – | 18.2 µM | – | 55.5 µM | – | 11.2 µM | – | > 57.7 µM | – | 23.5 µM | – | 27.3 µM | – | 3.38 µM | – | 57.7 | – | > 73.7 µM
8 | CS(=O)(=O)CCNCc1coc(-c2ccc3ncnc(Nc4ccc(OCc5ccccc5)cc4)c3c2)c1 | 2.62 µM | 17.3 µM | 3.88 µM | 7.53 µM | 3.83 µM | 7.49 µM | 4.16 µM | 9.12 µM | 3.57 µM | 8.03 µM | 4.31 µM | 8.18 µM | 3.32 µM | 6.9 µM | 4.11 µM | 8.23 µM | 8.95 µM | > 25 | 4.34 µM | 8.34 µM
9 | COC(=O)c1ccc2[nH]c(O)c(C(=Nc3ccc(N(C)C(=O)CN4CCN(C)CC4)cc3)c3ccc4c(c3)OCO4)c2c1 | 2.09 µM | 7.75 µM | 0.197 µM | 1.52 µM | 1.21 µM | 2.92 µM | 0.692 µM | 2.14 µM | 0.739 µM | 8 µM | 2.1 µM | 6.86 µM | 0.859 µM | 3.66 µM | 0.724 µM | 2.19 µM | 0.489 µM | 3.39 | 0.348 µM | 2.21 µM
10 | O=C(/C=C/c1ccccc1)Nc1ncc(Cc2ccccc2Cl)s1 | 1.26 µM | > 100 µM | 0.375 µM | > 100 µM | 1.5 µM | > 100 µM | 0.774 µM | > 100 µM | 0.513 µM | > 100 µM | 0.326 µM | > 100 µM | 0.474 µM | > 100 µM | 0.0972 µM | 0.344 µM | 0.409 µM | > 100 | 0.413 µM | > 100 µM
11 | C#CC1(O)C(COP(=O)(O)OCC(COP(=O)(O)OCC2OC(n3cc(F)c(=O)[nH]c3=O)CC2O)OCCCCCCCCCCCCCCCCCC)OC(n2ccc(N)nc2=O)C1O (stereo not drawn) | 0.764 µM | – | < 0.01 µM | > 40.7 µM | 7.4 µM | > 100 µM | 0.0379 µM | 17 µM | 3.72 µM | > 51.3 µM | 0.196 µM | 2.69 µM | 0.712 µM | > 34.8 µM | 0.566 µM | > 27.2 µM | 0.0397 µM | 6.72 | 0.0269 µM | > 100 µM
12 | CC(=O)OC1OC([C@H]2c3cccc(O)c3C(=O)c3c(O)cc(C)cc32)C(O)C(O)C1O (stereo partly drawn) | 0.0623 µM | 0.194 µM | < 0.01 µM | 1.18 µM | 0.191 µM | > 23.2 µM | 0.0334 µM | 1.99 µM | 0.0319 µM | > 41.1 µM | < 0.0219 µM | 1.41 µM | 0.0479 µM | 19.9 µM | 0.0817 µM | 2.72 µM | – | 1.09 | 0.112 µM | 14.1 µM

— PubChem BioAssay (NCI)
